{
  "source": "paper PMC10804494",
  "about": "(BMC Complementary Medicine and Therapies, 2024)",
  "key": {"[1]": {"system": "highly pathogenic avian influenza A/chicken/Egypt/N12640A/2016 (H5N1)", "assay": "microbe, parasite or virus in culture", "type": "cell-based, influenza A/H5N1 virus"}, "in vitro": {"assay": "in vitro", "conditions": "dog"}, "influenza A/H1N1": {"system": "influenza A/H1N1", "assay": "Plaque reduction assay, A/H1N1", "type": "cell-based, influenza A/H1N1 virus", "conditions": "A/H1N1, MDCK, low non-toxic concentrations, Fig. 4"}, "influenza A/H5N1 virus [2]": {"system": "influenza A/H5N1 virus", "assay": "microbe, parasite or virus in culture", "type": "cell-based", "conditions": "H5N1, MDCK, read-out: Viral inhibition percentage, Virucidal"}, "influenza A/H5N1 virus [3]": {"system": "influenza A/H5N1 virus", "assay": "microbe, parasite or virus in culture", "type": "cell-based", "conditions": "H5N1, MDCK, read-out: Viral inhibition percentage, Viral Replication"}, "influenza A/H5N1 virus [4]": {"system": "influenza A/H5N1 virus", "assay": "microbe, parasite or virus in culture", "type": "cell-based"}, "[5]": {"conditions": "cited from earlier work"}, "influenza A/H5N1": {"system": "influenza A/H5N1", "type": "cell-based, influenza A/H5N1 virus"}, "MDCK cells": {"system": "MDCK cells", "conditions": "dog"}, "[6]": {"system": "seasonal influenza A/Egypt/NRC098/2019(H1N1)", "assay": "microbe, parasite or virus in culture", "type": "cell-based", "conditions": "H1N1, MDCK, 72 h"}, "[7]": {"system": "IAV (A/Puerto Rico/8/1934(H1N1))", "conditions": "A/Puerto Rico/8/1934(H1N1) in mice; cited from earlier work"}, "[8]": {"conditions": "Influenza A virus, H5N1, MDCK, 72 h"}, "[9]": {"conditions": "Influenza A virus, H5N1, MDCK, read-out: Viral inhibition percentage, Viral Adsorption"}},
  "note": "Where a name gives a salt, the structure may show the parent alone. Read-outs that look alike come from different tables or passages of the source.",
  "data": [
    {"compound": "CN1C2CC(OC(=O)C(CO)c3ccccc3)CC1C1OC12", "note": "(single isomer, unassigned; (-)) [(-)Scopolamine HCl]", "values": [
      {"measurement": "IC50", "setting": "[1]; [8]", "result": 360, "unit": "mg/L"}
    ]},
    {"compound": "C=C[C@H]1C[N@@]2CC[C@H]1C[C@@H]2[C@@H](O)c1ccnc2ccc(OC)cc12", "note": "[Quinidine Sulphate, Quinidine sulphate]", "values": [
      {"measurement": "CC50", "setting": "in vitro", "result": "> 10000", "unit": "mg/L"}
    ]},
    {"compound": "COc1cc2c(c(OC)c1OC)-c1ccc(OC)c(=O)cc1[C@@H](NC(C)=O)CC2", "note": "[Colchicine, (S)-N-(1,2,3,10-tetramethoxy-9-oxo-5,6,7,9-tetrahydrobenzo[a]heptalen-7-yl)acetamide]", "values": [
      {"measurement": "reduction of viral titers (in words)", "setting": "influenza A/H1N1", "result": "high capacity to reduce viral titers"},
      {"measurement": "inhibition at 1 µg/mL", "setting": "influenza A/H5N1 virus [2]", "result": 25, "unit": "%"},
      {"measurement": "inhibition at 10 µg/mL", "setting": "influenza A/H5N1 virus [2]", "result": 38, "unit": "%"},
      {"measurement": "inhibition at 100 µg/mL", "setting": "influenza A/H5N1 virus [2]", "result": 47.1, "unit": "%"},
      {"measurement": "inhibition at 1 µg/mL", "setting": "influenza A/H5N1 virus [3]", "result": 85.7, "unit": "%"},
      {"measurement": "inhibition at 10 µg/mL", "setting": "influenza A/H5N1 virus [3]", "result": 87, "unit": "%"},
      {"measurement": "inhibition at 100 µg/mL", "setting": "influenza A/H5N1 virus [3]", "result": 91.1, "unit": "%"},
      {"measurement": "Viral inhibition percentage, Viral Adsorption", "setting": "influenza A/H5N1 virus [4]", "result": 73.05, "unit": "%"},
      {"measurement": "inhibition at 1 µg/mL", "setting": "influenza A/H5N1 virus [4]; [9]", "result": 55, "unit": "%"},
      {"measurement": "inhibition at 10 µg/mL", "setting": "influenza A/H5N1 virus [4]; [9]", "result": 64.1, "unit": "%"},
      {"measurement": "inhibition at 100 µg/mL", "setting": "influenza A/H5N1 virus [4]; [9]", "result": 73, "unit": "%"},
      {"measurement": "toxic range", "setting": "[5]", "result": 0.6, "unit": "mg"},
      {"measurement": "reduction of viral titers (in words)", "setting": "influenza A/H5N1", "result": "high capacity to reduce viral titers"},
      {"measurement": "CC50", "setting": "in vitro", "result": 2380, "unit": "mg/L"},
      {"measurement": "CC50", "setting": "MDCK cells", "result": 3370, "unit": "mg/L"}
    ]},
    {"compound": "CN[C@@H](C)[C@H](O)c1ccccc1", "note": "[Ephedrine HCl]", "values": [
      {"measurement": "IC50", "setting": "[1]", "result": 186, "unit": "mg/L"},
      {"measurement": "IC50", "setting": "[1]; [8]", "result": 186, "unit": "mg/L"},
      {"measurement": "CC50", "setting": "in vitro", "result": "> 10000", "unit": "mg/L"}
    ]},
    {"compound": "CN1C2CCC1CC(OC(=O)C(CO)c1ccccc1)C2", "note": "(stereo not shown) [Atropine sulphate]", "values": [
      {"measurement": "IC50", "setting": "[6]", "result": 0.204, "unit": "mg/L"},
      {"measurement": "reduction of viral titers (in words)", "setting": "influenza A/H1N1", "result": "high capacity to reduce viral titers"},
      {"measurement": "inhibition at 1 µg/mL", "setting": "influenza A/H5N1 virus [2]", "result": 90.5, "unit": "%"},
      {"measurement": "inhibition at 10 µg/mL", "setting": "influenza A/H5N1 virus [2]", "result": 97.6, "unit": "%"},
      {"measurement": "inhibition at 100 µg/mL", "setting": "influenza A/H5N1 virus [2]", "result": 100, "unit": "%"},
      {"measurement": "inhibition at 1 µg/mL", "setting": "influenza A/H5N1 virus [3]", "result": 32.8, "unit": "%"},
      {"measurement": "inhibition at 10 µg/mL", "setting": "influenza A/H5N1 virus [3]", "result": 41.2, "unit": "%"},
      {"measurement": "inhibition at 100 µg/mL", "setting": "influenza A/H5N1 virus [3]", "result": 52.9, "unit": "%"},
      {"measurement": "IC50", "setting": "[1]; [8]", "result": 2.26, "unit": "mg/L"},
      {"measurement": "inhibition at 1 µg/mL", "setting": "influenza A/H5N1 virus [4]; [9]", "result": 36.2, "unit": "%"},
      {"measurement": "inhibition at 10 µg/mL", "setting": "influenza A/H5N1 virus [4]; [9]", "result": 45.2, "unit": "%"},
      {"measurement": "inhibition at 100 µg/mL", "setting": "influenza A/H5N1 virus [4]; [9]", "result": 52.4, "unit": "%"},
      {"measurement": "reduction of viral titers (in words)", "setting": "influenza A/H5N1", "result": "high capacity to reduce viral titers"}
    ]},
    {"compound": "CC(=O)N[C@H]1[C@H]([C@H](O)[C@H](O)CO)OC(C(=O)O)=C[C@@H]1N=C(N)N", "note": "[Zanamivir]", "values": [
      {"measurement": "IC50", "setting": "[6]", "result": 0.265, "unit": "mg/L"},
      {"measurement": "IC50", "setting": "[1]; [8]", "result": 0.358, "unit": "mg/L"},
      {"measurement": "CC50", "setting": "in vitro", "result": "> 10000", "unit": "mg/L"}
    ]},
    {"compound": "Cn1c(=O)c2c(ncn2C)n(C)c1=O", "note": "[Caffeine]", "values": [
      {"measurement": "IC50", "setting": "[1]; [8]", "result": 85.7, "unit": "mg/L"},
      {"measurement": "CC50", "setting": "in vitro", "result": "> 10000", "unit": "mg/L"}
    ]},
    {"compound": "C[n+]1cccc(C(=O)[O-])c1", "note": "[Trigonelline HCl]", "values": [
      {"measurement": "CC50", "setting": "in vitro", "result": "> 10000", "unit": "mg/L"}
    ]},
    {"compound": "COc1ccc(Cc2nccc3cc(OC)c(OC)cc23)cc1OC", "note": "[Papaverine HCl]", "values": [
      {"measurement": "anti-influenza activity against A/H5N1 virus (in words)", "setting": "[1]", "result": "poor anti-influenza activity"},
      {"measurement": "CC50", "setting": "in vitro", "result": 274, "unit": "mg/L"}
    ]},
    {"compound": "CC[C@@H]1C(=O)OC[C@@H]1Cc1cncn1C", "note": "[Pilocarpine HCl]", "values": [
      {"measurement": "IC50", "setting": "[6]", "result": 0.637, "unit": "mg/L"},
      {"measurement": "reduction of viral titers (in words)", "setting": "influenza A/H1N1", "result": "high capacity to reduce viral titers"},
      {"measurement": "inhibition at 10 µg/mL", "setting": "influenza A/H5N1 virus [2]", "result": 94.9, "unit": "%"},
      {"measurement": "inhibition at 100 µg/mL", "setting": "influenza A/H5N1 virus [2]", "result": 99.1, "unit": "%"},
      {"measurement": "inhibition at 1000 µg/mL", "setting": "influenza A/H5N1 virus [2]", "result": 100, "unit": "%"},
      {"measurement": "inhibition at 10 µg/mL", "setting": "influenza A/H5N1 virus [3]", "result": 35.3, "unit": "%"},
      {"measurement": "inhibition at 100 µg/mL", "setting": "influenza A/H5N1 virus [3]", "result": 46.9, "unit": "%"},
      {"measurement": "inhibition at 1000 µg/mL", "setting": "influenza A/H5N1 virus [3]", "result": 53.1, "unit": "%"},
      {"measurement": "IC50", "setting": "[1]; [8]", "result": 0.21, "unit": "mg/L"},
      {"measurement": "inhibition at 10 µg/mL", "setting": "influenza A/H5N1 virus [4]; [9]", "result": 37.8, "unit": "%"},
      {"measurement": "inhibition at 100 µg/mL", "setting": "influenza A/H5N1 virus [4]; [9]", "result": 44.6, "unit": "%"},
      {"measurement": "inhibition at 1000 µg/mL", "setting": "influenza A/H5N1 virus [4]; [9]", "result": 56.9, "unit": "%"},
      {"measurement": "reduction of viral titers (in words)", "setting": "influenza A/H5N1", "result": "high capacity to reduce viral titers"},
      {"measurement": "CC50", "setting": "in vitro", "result": 3320, "unit": "mg/L"}
    ]},
    {"compound": "C=C[C@H]1C[N@@]2CC[C@H]1C[C@H]2[C@H](O)c1ccnc2ccc(OC)cc12", "note": "[Quinine sulphate]", "values": [
      {"measurement": "antiviral effect in mice (in words)", "setting": "[7]", "result": "exert an antiviral effect"},
      {"measurement": "anti-influenza activity against A/H5N1 virus (in words)", "setting": "[1]", "result": "no anti-influenza activity"},
      {"measurement": "CC50", "setting": "in vitro", "result": "> 10000", "unit": "mg/L"}
    ]}
  ]
}
